Where “and” joins values, the source holds several entries; their conditions need not be identical. Identical values can stand only once.
What was measured:
[1] = Mouse blood and tumour pharmacokinetics in NCI-H441 tumour bearing mice; conditions: for RMC-7977 (nmol/kg) Tumor: single dose, individual animals
Description: Tumour tissue samples were homogenized with a 10× volume of methanol/15 mM PBS (1:2, v:v). Sample preparation and analysis on a Sciex 6500+ triple quadrupole mass spectrometer equipped with an ACQUITY UPLC system were performed as previously described[12].
All datapoints shown, n = 3 per dose and timepoint.
Female BALB/c nude mice, NOD SCID and NSG mice 6-8 weeks old from Beijing Vital River/VR Laboratory Animal Co., LTD, Beijing AniKeeper Biotech Co., Ltd., Shanghai Sino-British SIPPR/BK Laboratory Animal Co., LTD and The Jackson Laboratory were used. Animals were housed in polycarbonate cages, in an environmentally monitored, well ventilated room maintained at a constant temperature of 20-26°C and relative humidity of 40-80%. Fluorescent lighting provided illumination approximately 12 hours per day. Each mouse was inoculated at the right flank with tumor cells (2x10^6-1x10^7) in 100-200 µL of media/PBS supplemented with Matrigel (1:1). Treatments were started when the average tumor size reached 100-250 mm^3. […] Mice on studies were weighed and tumor measurements collected twice weekly. […] Body weights were collected twice a week during the study. For single-dose pharmacokinetic/pharmacodynamics (PK/PD) study, mice were randomized into treatment groups when mean tumor volume reached 400-600 mm^3.

[2] = system: Pa16C cells expressing MEK1 mutants; experiment: Proliferation (Calcein AM) of Pa16C cells expressing MEK1 mutants; format: cell-based, human
[3] = female, BALB/c nude, mouse, whole blood, po, 10 mg/kg

Structure (SMILES): CCn1c(-c2cc(N3CCN(C4CC4)CC3)cnc2[C@H](C)OC)c2c3cc(ccc31)-c1csc(n1)C[C@H](NC(=O)[C@H]1[C@@H]3COC[C@@H]31)C(=O)N1CCC[C@H](N1)C(=O)OCC(C)(C)C2 [RMC-7977]
- half-life ([1]; female, BALB/c nude, mouse, tumour, po, 10 mg/kg): 18.3 h
- AUC(0-t) [1, 3]: 7240 ng·h/mL
- Cmax [1, 3]: 1110 ng/mL
- half-life [1, 3]: 2.78 h
- RMC-7977 (nmol/kg) Tumor ([1]; 8h, 1 mg/kg): 244 nmol/kg and 196 nmol/kg and 235 nmol/kg
- RMC-7977 (nmol/kg) Tumor ([1]; 8h, 5 mg/kg): 458 nmol/kg and 496 nmol/kg and 1040 nmol/kg
- RMC-7977 (nmol/kg) Tumor ([1]; 8h, 10 mg/kg): 998 nmol/kg and 832 nmol/kg and 1249 nmol/kg and 1135 nmol/kg and 713 nmol/kg and 1191 nmol/kg
- RMC-7977 (nmol/kg) Tumor ([1]; 8h, 25 mg/kg): 2289 nmol/kg and 4057 nmol/kg and 2196 nmol/kg
- RMC-7977 (nmol/kg) Tumor ([1]; 24h, 1 mg/kg): 38.1 nmol/kg and 54.8 nmol/kg and 48.3 nmol/kg
- RMC-7977 (nmol/kg) Tumor ([1]; 24h, 5 mg/kg): 201 nmol/kg and 183 nmol/kg and 226 nmol/kg
- RMC-7977 (nmol/kg) Tumor ([1]; 24h, 10 mg/kg): 310 nmol/kg and 343 nmol/kg and 320 nmol/kg and 402 nmol/kg and 316 nmol/kg and 606 nmol/kg
- RMC-7977 (nmol/kg) Tumor ([1]; 24h, 25 mg/kg): 1047 nmol/kg and 906 nmol/kg and 996 nmol/kg
- RMC-7977 (nmol/kg) Tumor ([1]; 48h, 1 mg/kg): 27 nmol/kg and 31.7 nmol/kg
- RMC-7977 (nmol/kg) Tumor ([1]; 48h, 5 mg/kg): 68.9 nmol/kg and 51.9 nmol/kg and 52.5 nmol/kg
- RMC-7977 (nmol/kg) Tumor ([1]; 48h, 10 mg/kg): 177 nmol/kg and 192 nmol/kg and 214 nmol/kg and 205 nmol/kg and 233 nmol/kg and 65.7 nmol/kg
- RMC-7977 (nmol/kg) Tumor ([1]; 48h, 25 mg/kg): 433 nmol/kg and 394 nmol/kg and 691 nmol/kg
- RMC-7977 (nmol/kg) Tumor ([1]; 72h, 5 mg/kg): 52.4 nmol/kg and 38.4 nmol/kg
- RMC-7977 (nmol/kg) Tumor ([1]; 72h, 10 mg/kg): 155 nmol/kg and 86.2 nmol/kg and 63.8 nmol/kg and 71.8 nmol/kg and 72 nmol/kg
- RMC-7977 (nmol/kg) Tumor ([1]; 72h, 25 mg/kg): 253 nmol/kg and 209 nmol/kg and 230 nmol/kg
- overall exposure in subcutaneous tumours compared with blood ([1]; subcutaneous xenograft tumour models): approximately threefold increase
- Proliferation of Pa16C cells expressing MEK1 mutant constructs ([2]; MEK1E102-I103del, inhibitor 0.010 nM): 100
- Proliferation of Pa16C cells expressing MEK1 mutant constructs ([2]; MEK1E102-I103del, inhibitor 0.046 nM): 104.2 and 107.7 and 121 and 88.4
- Proliferation of Pa16C cells expressing MEK1 mutant constructs ([2]; MEK1E102-I103del, inhibitor 11.111 nM): 80.9 and 75.7 and 68.8 and 87.1
- Proliferation of Pa16C cells expressing MEK1 mutant constructs ([2]; MEK1E102-I103del, inhibitor 33.333 nM): 72.5 and 68.1 and 61 and 93
- Proliferation of Pa16C cells expressing MEK1 mutant constructs ([2]; MEK1E102-I103del, inhibitor 100.000 nM): 65.9 and 65.1 and 49.1 and 77.1
- Proliferation of Pa16C cells expressing MEK1 mutant constructs ([2]; MEK1E102-I103del, inhibitor 300.000 nM): 58.5 and 56.3 and 42.3 and 60.5
- Proliferation of Pa16C cells expressing MEK1 mutant constructs ([2]; MEK1K57N, inhibitor 0.010 nM): 100
- Proliferation of Pa16C cells expressing MEK1 mutant constructs ([2]; MEK1K57N, inhibitor 0.046 nM): 132.7 and 110.5 and 108.3
- Proliferation of Pa16C cells expressing MEK1 mutant constructs ([2]; MEK1K57N, inhibitor 11.111 nM): 106.5 and 108.3 and 128.9
- Proliferation of Pa16C cells expressing MEK1 mutant constructs ([2]; MEK1K57N, inhibitor 33.333 nM): 101 and 88.9 and 126.9
- Proliferation of Pa16C cells expressing MEK1 mutant constructs ([2]; MEK1K57N, inhibitor 100.000 nM): 86.3 and 76.5 and 119.3
- Proliferation of Pa16C cells expressing MEK1 mutant constructs ([2]; MEK1K57N, inhibitor 300.000 nM): 68.3 and 60.7 and 90.3
- Proliferation of Pa16C cells expressing MEK1 mutant constructs ([2]; MEK1Q56P, inhibitor 0.010 nM): 100
- Proliferation of Pa16C cells expressing MEK1 mutant constructs ([2]; MEK1Q56P, inhibitor 0.046 nM): 111.1 and 128.1 and 116.5
- Proliferation of Pa16C cells expressing MEK1 mutant constructs ([2]; MEK1Q56P, inhibitor 11.111 nM): 109 and 97.6 and 77.9
- Proliferation of Pa16C cells expressing MEK1 mutant constructs ([2]; MEK1Q56P, inhibitor 33.333 nM): 99.6 and 83.8 and 68
- Proliferation of Pa16C cells expressing MEK1 mutant constructs ([2]; MEK1Q56P, inhibitor 100.000 nM): 81.8 and 65.9 and 54.2
- Proliferation of Pa16C cells expressing MEK1 mutant constructs ([2]; MEK1Q56P, inhibitor 300.000 nM): 72.6 and 57.1 and 47.4
- Proliferation of Pa16C cells expressing MEK1 mutant constructs ([2]; MEK1S218D/S222D, inhibitor 0.010 nM): 100
- Proliferation of Pa16C cells expressing MEK1 mutant constructs ([2]; MEK1S218D/S222D, inhibitor 0.046 nM): 98 and 111.5 and 106.4 and 100.9
- Proliferation of Pa16C cells expressing MEK1 mutant constructs ([2]; MEK1S218D/S222D, inhibitor 11.111 nM): 89.6 and 94.3 and 98.3 and 90.9
- Proliferation of Pa16C cells expressing MEK1 mutant constructs ([2]; MEK1S218D/S222D, inhibitor 33.333 nM): 86.8 and 90.6 and 104.9 and 86
- Proliferation of Pa16C cells expressing MEK1 mutant constructs ([2]; MEK1S218D/S222D, inhibitor 100.000 nM): 81.6 and 87.3 and 91 and 73.6
- Proliferation of Pa16C cells expressing MEK1 mutant constructs ([2]; MEK1S218D/S222D, inhibitor 300.000 nM): 72.8 and 76 and 71.6 and 55.5
- Proliferation of Pa16C cells expressing MEK1 mutant constructs ([2]; MEK1WT, inhibitor 0.010 nM): 100
- Proliferation of Pa16C cells expressing MEK1 mutant constructs ([2]; MEK1WT, inhibitor 0.046 nM): 97.2 and 123.9 and 122.4 and 107.7
- Proliferation of Pa16C cells expressing MEK1 mutant constructs ([2]; MEK1WT, inhibitor 11.111 nM): 34.9 and 22.9 and 31.4 and 22.8
- Proliferation of Pa16C cells expressing MEK1 mutant constructs ([2]; MEK1WT, inhibitor 33.333 nM): 19.9 and 13.1 and 14.8 and 12.8
- Proliferation of Pa16C cells expressing MEK1 mutant constructs ([2]; MEK1WT, inhibitor 100.000 nM): 14.4 and 9 and 9.5 and 10.2
- Proliferation of Pa16C cells expressing MEK1 mutant constructs ([2]; MEK1WT, inhibitor 300.000 nM): 9.7 and 8 and 8.2 and 8.6

From paper PMC11111408, “Concurrent inhibition of oncogenic and wild-type RAS-GTP for cancer therapy” (Nature, 2024)
